This is an account of results in US20120083522A1, “MODULATION OF INFLAMMATORY RESPONSES BY FACTOR XI” (Isis Pharmaceuitcals, inc., priority 2009, published 2012).

In the oligonucleotide strings, read from the 5' end, every base follows the letter of its sugar. An asterisk marks phosphorothioate; unmarked linkages are phosphodiester. Other units and linkages are bracketed, terminal groups are in braces. A string of capitals states the bases alone. e = 2'-O-(2-methoxyethyl) (MOE); [5mC] = 5-methylcytosine; d = 2'-deoxy (DNA)

Data set [1] concerns Factor XI mRNA. Briefly: Cynomolgus monkeys, escalating doses: liver Factor XI RNA analysis (Example 29). The settings on record: escalating doses 5, 10, 25 mg/kg s.c. over 12 weeks, day 85. Type of data set: in vivo. The procedure: Groups, each consisting of two male and three female monkeys, were injected subcutaneously with ISIS 416838, ISIS 416850, ISIS 416858, ISIS 416864, or ISIS 417002 in escalating doses. Antisense oligonucleotide was administered to the monkeys at 5 mg/kg three times per a week for week 1; 5 mg/kg twice per week for weeks 2 and 3; 10 mg/kg three times per week for week 4; 10 mg/kg twice per week for weeks 5 and 6; 25 mg/kg three times per week for week 7; and 25 mg/kg twice per week for weeks 8, 9, 10, 11, and 12. One control group, consisting of two male and three female monkeys, was injected subcutaneously with PBS according to the same dosing regimen. An additional experimental group, consisting of two male and three female monkeys, was injected subcutaneously with ISIS 416850 in a chronic, lower dose regimen. Antisense oligonucleotide was administered to the monkeys at 5 mg/kg three times per week for week 1; 5 mg/kg twice per week for week 2 and 3; 10 mg/kg three times per week for week 4; and 10 mg/kg twice per week for weeks 5 to 12. Body weights were measured weekly. Blood samples were collected 14 days and 5 days before the start of treatment and subsequently once per week for Factor XI protein activity analysis in plasma and measurement of various hematologic factors. On day 85, the monkeys were euthanized by exsanguination while under deep anesthesia, and organs harvested for further analysis.
On day 85, RNA was extracted from liver tissue for real-time PCR analysis of Factor XI using primer probe set LTS00301 (forward primer sequence […], designated herein as SEQ ID NO 271; reverse primer sequence […], designated herein as SEQ ID NO: 272; and probe sequence TGCAGGCACAGCATCCCAGTGTTCTX, wherein X is a fluorphore, designated herein as SEQ ID NO. 273). Results are presented as percent inhibition of Factor XI, relative to PBS control.

A further data set concerns Factor XI protein. Nature of the data set: Cynomolgus monkeys: plasma Factor XI protein ELISA (Example 30). The following applies: for Inhibition of Factor XI protein relative to the PBS control: 25 mg/kg s.c., plasma ELISA. It is filed as in vivo. The procedure, abridged: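 Monkeys (2 male, 2 female per group) dosed s.c. with antisense oligonucleotide 25 mg/kg three times in week 1, then twice weekly to week 8; PBS control on same schedule. Plasma (1:50) assayed by sandwich ELISA with polyclonal anti-Factor XI capture and peroxidase-conjugated detection, o-phenylenediamine read at 490 nm; expressed as percent reduction versus PBS.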
A general note: ELISA stands for enzyme-linked immunosorbent assay.

Data set [2] concerns DSS-induced colitis model. Briefly: Colitis Study F: body weight, stool scores, colon length and weight. It is filed as in vivo, Swiss Webb mice. The procedure:
(§1) In a first group of 8 Swiss Webb mice, 50 mg/kg of ISIS 404071 was injected subcutaneously twice a week for 3 weeks. Two control groups of 8 mice each were injected with PBS twice a week for 3 weeks. After the oligonucleotide treatment, 4% DSS in water was administered ad libitum for 7 days to the experimental group and one PBS control group. Mice were sacrificed at the end of the study on day 7 after DSS was administered.
Mice in all groups were weighed at day 0 and daily for 7 days after administration of DSS. Mice were sacrificed at the end of the study on day 7 after DSS was administered and their colon lengths and weight were measured as shown in Table 45.

For data set [3], the system named is OVA/alum-induced asthma model. Briefly: OVA-induced asthma model: mucus production (Example 13). Type of data set: in vivo, BALB/c mice. As for the experimental part:
The mice were divided into four treatment groups of 5 mice each. One group received subcutaneous injections of ISIS 404071 at a dose of 50 mg/kg twice a week for 4 weeks. One group of mice received subcutaneous injections of control oligonucleotide, ISIS 421208, which is a mismatch oligonucleotide sequence of ISIS 404071, at a dose of 50 mg/kg twice a week for 4 weeks. Two groups of mice received subcutaneous injections of PBS twice a week for 4 weeks. One PBS group remained untreated and served as the control group. The second PBS group and both the oligonucleotide treated groups were injected with OVA/alum on days 0 and 14 and nebulized with OVA in PBS on days 24, 25, and 26. The first OVA application served to sensitize the mice against OVA while the second was a challenge application to provoke an asthmatic reaction. Two days following the final dose, the mice were euthanized, bronchial lavage (BAL) was collected and analyses done.
Lung sections were stained with periodic acid […] (PAS) base stain that stains mucus, which is produced during asthma attacks (Rogers, D. F. Curr. Opin Pharmacol. 2004. 4: 241-250). The number of airways containing mucus as a percentage of the total airways in the lungs was evaluated.

Data set [4] has as its system Factor XI mRNA. Nature of the data set: Colitis Study F: Factor XI mRNA in liver and colon. Type of data set: in vivo, Swiss Webb mice. The settings on record: DSS-treated mice, 50 mg/kg, percent of the PBS treated control. As for the experimental part:
as §1
The effect of antisense inhibition in the liver and colon levels of Factor XI mRNA after treatment by ISIS 404071 is presented in Table 48 (as a percent of the PBS treated control).

[5] abbreviates: DSS-treated mice, 50 mg/kg, day 7.

Turning to “416864 (antisense GGCAGCGGACGGCATTGGTG; 5-10-5 gapmer, wing sugar chemistry not given here, further chemistry not given here) [compound 416864]”, the “% inhibition of Factor XI mRNA in liver relative to the PBS control” value in the data set on Factor XI mRNA [1] is 44%.
The same measure, in the same setting: with “417002 (antisense GGTGCACAGTTTCTGGCAGG; 2-13-5 gapmer, wing sugar chemistry not given here, further chemistry not given here) [compound 417002]” the figure was 57%.
On to “416850 (antisense TGCACAGTTTCTGGCAGGCC; 5-10-5 gapmer, wing sugar chemistry not given here, further chemistry not given here) [compound 416850]”, for which the “% inhibition of Factor XI mRNA in liver relative to the PBS control” value with Factor XI mRNA [1] is on record as 84%. Further, the “Inhibition of Factor XI protein relative to the PBS control” value is reported as 20% with Factor XI protein (Day 10); 31% in the data set with Factor XI protein (Day 17); 38% in the data set with Factor XI protein (Day 24); 52% with Factor XI protein (Day 31); 51% in the data set with Factor XI protein (Day 38); 53% in the data set with Factor XI protein (Day 45). Moreover, the “Inhibition of Factor XI protein relative to the PBS control” value was found to be 53% with Factor XI protein (Day 52), 58% in the data set on Factor XI protein (Day 55), 0% in the data set on Factor XI protein (Day −5) and 0% with Factor XI protein (Day −14).
“ISIS 416850: gapmer of Table 8 (antisense eT*eG*e[5mC]*eA*e[5mC]*dA*dG*dT*dT*dT*d[5mC]*dT*dG*dG*d[5mC]*eA*eG*eG*e[5mC]*e[5mC])”: the “Factor XI protein levels (in words)” value in the data set on Factor XI protein (cynomolgus monkeys, Example 30) was “time-dependent decrease in protein levels”.
For “416858 (antisense ACGGCATTGGTGCACAGTTT; 5-10-5 gapmer, wing sugar chemistry not given here, further chemistry not given here) [compound 416858]”, the “% inhibition of Factor XI mRNA in liver relative to the PBS control” value in the data set with Factor XI mRNA [1] worked out at 90%. Moreover, the “Inhibition of Factor XI protein relative to the PBS control” value with Factor XI protein (Day 10) came out at 36%; with Factor XI protein (Day 17), 49%; in the data set on Factor XI protein (Day 24), 62%; with Factor XI protein (Day 31) it was 68%; in the data set with Factor XI protein (Day 38), 74%; in the data set on Factor XI protein (Day 45), 79%. For the same substance, the “Inhibition of Factor XI protein relative to the PBS control” value is 81% in the data set on Factor XI protein (Day 52), 81% with Factor XI protein (Day 55), 0% in the data set with Factor XI protein (Day −5) and 4% in the data set with Factor XI protein (Day −14).
For the substance “416838 (antisense GCAACCGGGATGATGAGTGC; 5-10-5 gapmer, wing sugar chemistry not given here, further chemistry not given here) [compound 416838]”, the “% inhibition of Factor XI mRNA in liver relative to the PBS control” value in the data set with Factor XI mRNA [1] amounted to 37%.
As to “445531 (antisense eG*eG*e[5mC]*eA*eT*dT*dG*dG*dT*dG*d[5mC]*dA*d[5mC]*eA*eG*eT*eT*eT) [compound 445531]”, the “Inhibition of Factor XI protein relative to the PBS control” value in the data set with Factor XI protein (Day 10) was found to be 9%; with Factor XI protein (Day 17), 22%; in the data set with Factor XI protein (Day 24), 23%; in the data set on Factor XI protein (Day 31), 27%; in the data set with Factor XI protein (Day 38), 29%; in the data set on Factor XI protein (Day 45), 32%. The “Inhibition of Factor XI protein relative to the PBS control” value in the data set with Factor XI protein (Day 52) was 32%; with Factor XI protein (Day 55), 37%; with Factor XI protein (Day −5), 1%; in the data set with Factor XI protein (Day −14), 0%.
Regarding “TGGTAATCCACTTTCAGAGG (eT*eG*eG*eT*eA*dA*dT*d[5mC]*d[5mC]*dA*d[5mC]*dT*dT*dT*d[5mC]*eA*eG*eA*eG*eG) [ISIS 404071, 5-10-5 MOE gapmer targeting murine Factor XI, target start site 869]”, in data set [2] (Colitis Study F, 50 mg/kg, compared to placebo), the “body weight (in words)” value is listed as “did not significantly affect body weight”. The “Body weight (day 0)” value in data set [2] (DSS-treated mice, 50 mg/kg s.c. twice a week for 3 weeks, day 0) turned out to be 28 grams. In data set [2] (DSS-treated mice, 50 mg/kg s.c. twice a week for 3 weeks, day 7), the “Body weight (day 7)” value came out at 24.7 grams. Besides, the Stool score in data set [2] (DSS-treated mice, 50 mg/kg, Day 3) was found to be 0; in data set [2] (DSS-treated mice, 50 mg/kg, Day 4), 0.25; in data set [2] (DSS-treated mice, 50 mg/kg, Day 5) it was 1; in data set [2] (DSS-treated mice, 50 mg/kg, Day 6), 1; in data set [2] (DSS-treated mice, 50 mg/kg, Day 7), 1. For the same substance, the Colon length in data set [2] (setting [5]) is recorded as 7.8 cm. This substance returned a Colon weight in data set [2] (setting [5]) of 339.3 mg. For the same substance, the “mucus production in the lungs (in words)” value in data set [3] is recorded as “decreased mucus production in the lungs”. Further, the “Mucus production, % airways containing mucus” value in data set [3] (BALB/c mice, 50 mg/kg s.c. twice a week for 4 weeks, PAS stain of lung sections) amounted to 34 % airways. The “Factor XI mRNA levels in the Colon” value in the data set with Factor XI mRNA [4] is 148 % of normal. Also, the “Factor XI mRNA levels in the Liver” value in the data set on Factor XI mRNA [4] was 24 % of normal.
With “445522 (antisense eG*e[5mC]*eA*e[5mC]*eA*dG*dT*dT*dT*d[5mC]*dT*dG*dG*e[5mC]*eA*eG*eG*e[5mC]) [compound 445522]”, the “Inhibition of Factor XI protein relative to the PBS control” value is on record as 36% with Factor XI protein (Day 10); 50% in the data set with Factor XI protein (Day 17); 61% in the data set on Factor XI protein (Day 24); 70% in the data set with Factor XI protein (Day 31); 73% in the data set with Factor XI protein (Day 38); 77% with Factor XI protein (Day 45). The “Inhibition of Factor XI protein relative to the PBS control” value is recorded as 80% in the data set with Factor XI protein (Day 52), 82% in the data set with Factor XI protein (Day 55), 0% with Factor XI protein (Day −5) and 2% in the data set with Factor XI protein (Day −14).
